From US12637424B2, “Pharmaceutical salt of an arylpyrrole derivative” (SENTINEL ONCOLOGY LIMITED, priority 2020, dated 2026)

What was measured:
Test in all cases: DiscoverX KinomeScreen competition binding assay (kinase selectivity panel)
[1] = biological target: T1, panel of ninety-seven kinases (Homo sapiens, UniProt Q8IYT8); conditions: ULK2; screened at 3000 nM
T1 construct: purchased DiscoverX; host or cells: E. coli (BL21-derived, T7 phage display) or HEK-293
Experimental: (§1) This has been investigated by testing atropisomer A-2 for off-target activity against a panel of ninety-seven kinases distributed across the kinome at a concentration of 3 μM using the DiscoverX KinomeScreen assay. The DiscoverX KinomeScreen assay is a site-directed competition binding assay which measures the binding affinity of a compound to a kinase, by use of a solid supported control compound which can bind or capture the kinases in solution. In the absence of a kinase-inhibitor test compound, all of the kinase will bind to the solid support. If a kinase-inhibitor test compound is added to the assay mix, the amount of kinase binding to the solid support will be reduced, the extent of reduction being dependent on the potency of the test compound as a kinase inhibitor. […] For most assays, kinase-tagged T7 phage strains were grown in parallel in 24-well blocks in an E. coli host derived from the BL21 strain. E. coli were grown to log-phase and infected with T7 phage from a frozen stock (multiplicity of infection=0.4) and incubated with shaking at 32° C. until lysis (90-150 minutes). The lysates were centrifuged (6,000×g) and filtered (0.2 μm) to remove cell debris. The remaining kinases were produced in HEK-293 cells and subsequently tagged with DNA for qPCR detection. Streptavidin-coated magnetic beads were treated with biotinylated small molecule ligands for 30 minutes at room temperature to generate affinity resins for kinase assays. The liganded beads were blocked with excess biotin and washed with blocking buffer (SeaBlock (Pierce), 1% BSA, 0.05% Tween 20, 1 mM DTT) to remove unbound ligand and to reduce non-specific phage binding. […] Test compounds were prepared as 40× stocks in 100% DMSO and directly diluted into the assay. All reactions were performed in polypropylene 384-well plates in a final volume of 0.02 ml. […] The beads were then re-suspended in elution buffer (1×PBS, 0.05% Tween 20, 0.5 μM non-biotinylated affinity ligand) and incubated at room temperature with shaking for 30 minutes. The kinase concentration in the eluates was measured by qPCR. Compounds that bind the kinase active site and directly (sterically) or indirectly (allosterically) prevent kinase binding to the immobilized ligand, will reduce the amount of kinase captured on the solid support. […] The strength of binding of the test molecule to the kinase can be expressed as the percent control (% Ctrl) The compound(s) were screened at 3000 nM concentration, and results for primary screen binding interactions are reported as ‘% Ctrl’, where lower numbers indicate stronger hits in the matrix on the following page(s). [formula] • negative control=DMSO (100% Ctrl) • positive control=control compound (0% Ctrl)

[2] = biological target: T2, panel of ninety-seven kinases (Homo sapiens, UniProt Q00536); conditions: CDK16; screened at 3000 nM
T2 construct: purchased DiscoverX; host or cells: E. coli (BL21-derived, T7 phage display) or HEK-293
Experimental: as §1

[3] = biological target: T3, panel of ninety-seven kinases (Homo sapiens, UniProt P11309); conditions: PIM1; screened at 3000 nM
T3 construct: purchased DiscoverX; host or cells: E. coli (BL21-derived, T7 phage display) or HEK-293
Experimental: as §1

[4] = biological target: T4, panel of ninety-seven kinases (Homo sapiens, UniProt P36507); conditions: MAP2K2; screened at 3000 nM
T4 construct: purchased DiscoverX; host or cells: E. coli (BL21-derived, T7 phage display) or HEK-293
Experimental: as §1

[5] = biological target: T5, panel of ninety-seven kinases (Homo sapiens, UniProt Q13177); conditions: PAK2; screened at 3000 nM
T5 construct: purchased DiscoverX; host or cells: E. coli (BL21-derived, T7 phage display) or HEK-293
Experimental: as §1

[6] = biological target: T6, panel of ninety-seven kinases (Homo sapiens, UniProt P50613); conditions: CDK7; screened at 3000 nM
T6 construct: purchased DiscoverX; host or cells: E. coli (BL21-derived, T7 phage display) or HEK-293
Experimental: as §1

[7] = biological target: T7, panel of ninety-seven kinases (Homo sapiens, UniProt Q96GD4); conditions: AURKB; screened at 3000 nM
T7 construct: purchased DiscoverX; host or cells: E. coli (BL21-derived, T7 phage display) or HEK-293
Experimental: as §1

[8] = biological target: T8, panel of ninety-seven kinases (Homo sapiens, UniProt P27361); conditions: MAPK3; screened at 3000 nM
T8 construct: purchased DiscoverX; host or cells: E. coli (BL21-derived, T7 phage display) or HEK-293
Experimental: as §1

[9] = biological target: T9, panel of ninety-seven kinases (Homo sapiens, UniProt P07333); conditions: CSF1R; screened at 3000 nM
T9 construct: purchased DiscoverX; host or cells: E. coli (BL21-derived, T7 phage display) or HEK-293
Experimental: as §1

[10] = biological target: T10, panel of ninety-seven kinases (Homo sapiens, UniProt P16234); conditions: PDGFRA; screened at 3000 nM
T10 construct: purchased DiscoverX; host or cells: E. coli (BL21-derived, T7 phage display) or HEK-293
Experimental: as §1

[11] = biological target: T11, panel of ninety-seven kinases (Homo sapiens, UniProt P06213); conditions: INSR; screened at 3000 nM
T11 construct: purchased DiscoverX; host or cells: E. coli (BL21-derived, T7 phage display) or HEK-293
Experimental: as §1

[12] = biological target: T12, panel of ninety-seven kinases (Homo sapiens, UniProt P07949); conditions: RET; screened at 3000 nM
T12 construct: purchased DiscoverX; host or cells: E. coli (BL21-derived, T7 phage display) or HEK-293
Experimental: as §1

[13] = biological target: T13, panel of ninety-seven kinases (Homo sapiens, UniProt Q9H093); conditions: NUAK2; screened at 3000 nM
T13 construct: purchased DiscoverX; host or cells: E. coli (BL21-derived, T7 phage display) or HEK-293
Experimental: as §1

[14] = biological target: T14, panel of ninety-seven kinases (Homo sapiens, UniProt P36897); conditions: TGFBR1; screened at 3000 nM
T14 construct: purchased DiscoverX; host or cells: E. coli (BL21-derived, T7 phage display) or HEK-293
Experimental: as §1

[15] = biological target: T15, panel of ninety-seven kinases (Homo sapiens, UniProt P52333); conditions: JAK3; screened at 3000 nM
T15 construct: purchased DiscoverX; host or cells: E. coli (BL21-derived, T7 phage display) or HEK-293
Experimental: as §1

[16] = biological target: T16, panel of ninety-seven kinases (Homo sapiens, UniProt P22607); conditions: FGFR3; screened at 3000 nM
T16 construct: purchased DiscoverX; host or cells: E. coli (BL21-derived, T7 phage display) or HEK-293
Experimental: as §1

[17] = system: panel of ninety-seven kinases; conditions: for % Ctrl @ 3 μM: screened at 3000 nM
Experimental: as §1

[18] = biological target: T17, panel of ninety-seven kinases (Homo sapiens, UniProt P48736); conditions: PIK3CG; screened at 3000 nM
T17 construct: purchased DiscoverX; host or cells: E. coli (BL21-derived, T7 phage display) or HEK-293
Experimental: as §1

[19] = biological target: T18, panel of ninety-seven kinases (Homo sapiens, UniProt P29317); conditions: EPHA2; screened at 3000 nM
T18 construct: purchased DiscoverX; host or cells: E. coli (BL21-derived, T7 phage display) or HEK-293
Experimental: as §1

[20] = biological target: T19, panel of ninety-seven kinases (Homo sapiens, UniProt O15075); conditions: DCLK1; screened at 3000 nM
T19 construct: purchased DiscoverX; host or cells: E. coli (BL21-derived, T7 phage display) or HEK-293
Experimental: as §1

[21] = biological target: T20, panel of ninety-seven kinases (Homo sapiens, UniProt O14920); conditions: IKBKB; screened at 3000 nM
T20 construct: purchased DiscoverX; host or cells: E. coli (BL21-derived, T7 phage display) or HEK-293
Experimental: as §1

[22] = biological target: T21, panel of ninety-seven kinases (Homo sapiens, UniProt O00750); conditions: PIK3C2B; screened at 3000 nM
T21 construct: purchased DiscoverX; host or cells: E. coli (BL21-derived, T7 phage display) or HEK-293
Experimental: as §1

CN(C)CCNC(=O)c1ccc(-c2ccc(-c3ccc(Cl)cc3)n2-c2ccccc2C(F)(F)F)cc1 (single isomer, unassigned) [Atropisomer A-2]
% Ctrl @ 3 μM [1]: 93 % Ctrl
% Ctrl @ 3 μM [2]: 100 % Ctrl
% Ctrl @ 3 μM [3]: 99 % Ctrl
% Ctrl @ 3 μM [4]: 81 % Ctrl
% Ctrl @ 3 μM [5]: 100 % Ctrl
% Ctrl @ 3 μM [6]: 100 % Ctrl
% Ctrl @ 3 μM [7]: 84 % Ctrl
% Ctrl @ 3 μM [8]: 99 % Ctrl
% Ctrl @ 3 μM [9]: 100 % Ctrl
% Ctrl @ 3 μM [10]: 100 % Ctrl
% Ctrl @ 3 μM [11]: 100 % Ctrl
% Ctrl @ 3 μM [12]: 95 % Ctrl
% Ctrl @ 3 μM [13]: 99 % Ctrl
% Ctrl @ 3 μM [14]: 95 % Ctrl
% Ctrl @ 3 μM [15]: 100 % Ctrl
% Ctrl @ 3 μM [16]: 92 % Ctrl
binding activity against panel kinases (% Ctrl) ([17]; 3 μM (3000 nM), ninety-seven kinases): poor or non-existent binding activity
% Ctrl @ 3 μM ([17]; EGFR): 100 % Ctrl
% Ctrl @ 3 μM ([17]; KIT): 100 % Ctrl
% Ctrl @ 3 μM [18]: 100 % Ctrl
% Ctrl @ 3 μM [19]: 100 % Ctrl
% Ctrl @ 3 μM [20]: 87 % Ctrl
% Ctrl @ 3 μM [21]: 96 % Ctrl
% Ctrl @ 3 μM [22]: 100 % Ctrl
